One may read the IC50 as the midpoint of a concentration-inhibition curve. Higher therefore signals a need for much substance. By hepatocyte CLint is commonly meant the capacity of the preparation to metabolise the compound, expressed as a volume cleared per time. Low readings indicate greater metabolic stability, high ones faster metabolism. In general, Km refers to the substrate concentration at which the rate is half of its maximum. As usually defined, the fraction unbound is free concentration divided by total concentration. A higher fraction unbound goes with much free substance. One may read the solubility as the dissolved amount per volume that the medium holds. A lower solubility goes with little dissolved substance.

The structures appear in SMILES notation. In brackets after ≈: the same amount, converted by molar mass.

One data set concerns Dd2 PfATP4 NITD609. Nature of the data set: [3H]-hypoxanthine incorporation assay, Dd2 PfATP4 NITD609 resistant. It is filed as cell-based. Conditions: Plasmodium falciparum. Here is the method:
(§1) Supplementary Table 3: Compound 9 and 12 retain their activity against Pf strains harbouring mutations to novel antimalarial agents in clinical development. Compound 9 and 12 were tested for their antiplasmodial activity against a panel of Pf strains known to harbour mutations conferring resistance to novel agents under clinical development. Parasite growth inhibition is measured using the [3H]-hypoxanthine incorporation assay. IC50s are established for each strain (n ≥2) and compared to the IC50 of Dd2 (standard pan-resistant […]

The subject of a further data set is Dd2 bc-1 ELQ-300. In words: [3H]-hypoxanthine incorporation assay, Dd2 bc-1 ELQ-300 resistant. It is filed as cell-based, Plasmodium falciparum. To be noted: Plasmodium falciparum, DD2. As to the method: as §1
Another data set in a line: Hepatocyte Clint, human. It is filed as in vitro ADME. To be noted: hepatocytes. From the text:
(§2) Supplementary Note 5: Prediction of human clearance for compound 12 by IVIVE.
(§3) Human clearance (CL) was predicted by in vitro-in vivo extrapolation (IVIVE) from the in vitro Clint in human hepatocytes6. In vitro Clint was scaled to in vivo Clint as follows:
(§4) Clint in vivo = Clint in vitro * scaling factors * fublood/fuinc
(§5) The liver weights used for scaling were 40, 32 and 24 g/kg body weight in rat, dog and human respectively. Hepatocellularity used for scaling was 163, 169 and 120 (X 106) cells/g liver in rat, dog and human respectively. Free fraction in blood was calculated as fuplasma /Blood:Plasma (BP) ratio. BP ratio and free fraction in the hepatocyte incubation mix, fuinc, were measured in vitro. Slope and intercept from the linear regression analysis of IVIVC for a large number of AstraZeneca compounds was applied for final correction in the scaled in vivo Clint. A well stirred model was used for CL prediction.
(§6) Where Qh is the liver blood flow. The values of Qh in rat, dog and human are 72, 55 and 20 mL.min-1kg-1 in rat, dog and human, respectively. In vitro parameters, observed in vivo CL and predicted CL are shown in supplementary Table 10. […]
(§7) (also on this page, place not known: in vivo in vivo CLintQ CLintQCL Predicted predicted predicted h h + ×=)
(§8) (1 picture or pasted object on this page, not shown here)

Another data set is described as follows: in vitro. It counts as in vitro ADME. Conditions: pH 7.4, Michaelis-Menten. As to the method: Supplementary Note 3: Metabolism of 12 in the presence of mouse (MLM) and human […]
The kinetics of metabolism of compound 12 to form the N-demethylated metabolite, 9, was studied by incubating 12 with HLM or MLM. Compound 12 was incubated with 1 mg/mL of pooled liver microsomes at four different compound concentrations (5, 10, 20 and 30 μM) in 166 µL of buffer containing 100 mM phosphate buffer, pH 7.4 and 1 mM NADPH, at 37°C.
Aliquots of 20 µL of incubation mix were quenched with 4 volumes of ice-cold acetonitrile at different time points, i.e., 0, 5, 10, 20 and 30 min in a 96 well microtitre plate. The quenched plate was centrifuged at 4000 rpm for 15 min and 20 µL of the supernatant was diluted to 200 µL with 50% acetonitrile in water. Depletion of 12 and formation of 9 was analysed by LC-MS/MS. Concentrations of 12 and 9 were determined using calibration curves prepared with synthetic standards. Kinetics of metabolite formation or parent depletion is shown in supplementary Fig. 5, Fig. 6 and kinetic parameters are described in supplementary Table […]
The rate and extent of metabolite formation in the presence of mouse liver microsomes was […]
than in the presence of HLM.

The next data set can be described thus: Hepatocyte Clint, dog. It is filed as in vitro ADME. To be noted: for Predicted blood CL: Dog.
Description: as §2, §3, §4, §5, §6, §7, §8

A short description of the next data set: Hepatocyte Clint, rat. It counts as in vitro ADME. Conditions: for Predicted blood CL: Rat.
Description: as §2, §3, §4, §5, §6, §7, §8

A further data set concerns Dd2-6R F4 D4. Nature of the data set: SYBR green growth assay, Dd2-6R F4 D4. Conditions: Plasmodium falciparum.
Data set [1] is described as follows: Plasma protein binding, guinea pig.
Data set [2] in a line: 3-day rat toxicity (tolerability) study of compound 12. It is filed as in vivo. Conditions: for Summary of clinical signs and effects: NOEL = no observed effect level. As to the method:
Two groups of male rats (n=3, Han Wistar) were obtained from Charles River Laboratories, UK. Animals were group housed for ~1 week before the initiation of dosing. On the first day of dosing, rats were ~11 weeks of age and weighed 250–300 g and received compound 12 via oral gavage at dose levels of 75 or 150 mg kg^−1 for three consecutive days and necropsied 24 h after the final dose. Vehicle: 1% pluronic F127; dose volume: 10 ml kg^−1. In addition to regular monitoring of the animals' general condition, toxicokinetic profiles were obtained on day 1 and clinical chemistry, haematology and histopathology were assessed from all animals on day 4. Female animals were not included in the study as sex differences in either exposure or tolerability were not expected and control animals were excluded from this preliminary study design to reduce animal usage. Body weights were collected during acclimation and before each dose. Food and water consumption were available ad libitum but not recorded.
Toxicokinetic profiles were obtained on day 1 from all animals (time points: 0.5, 1, 2, 4, 6 and 24 h post dose) via microsample tail prick (32 μl blood) and were analysed using a qualified analytical procedure. Clinical pathology blood samples were taken at necropsy (24 h after third and final dose) from all animals, and analysed following a routine toxicological parameter list. Urinalysis was not performed.

A further data set in a line: Blood-plasma ratio, rat. It is filed as in vitro ADME.
Description: as §2, §3, §4, §5, §6, §7, §8

A further data set has as its system Pf 3D7A. In words: in vitro parasite reduction ratio (PRR) assay. To be noted: after 48 h of exposure, 10 times IC50.
Data set [3] is described as follows: 3-day rat tolerability study of compound 2. It counts as in vivo. As to the method:
Protein binding (human free) […]
μM Cmax (total). Consequently, compound 2 was classified as having no therapeutic window preclinically in this model.
Rat 3 Day Toxicology Study: Male Han Wister rats (n=4) received compound 2 at dose levels of 100 or 300 mg/kg for three days (AstraZeneca, Waltham, USA).
One animal was found dead, and one considered moribund on the morning of Day 4, before

Description for Dd2-6R F4 D4: Assays were carried out in 384-well format with three technical replicates within an assay day and biological replicates carried out on three different assay days to assign a final EC50.
The drug was then washed off and the parasites were allowed to recover in normal growth media.

With `Cc1nc(Nc2ncc(N3CCN(C)[C@H](C)C3)c(Nc3cc(C)n(C)n3)n2)cc(C2CC2)c1F` [compound 12, (R)-N2-(4-cyclopropyl-5-fluoro-6-methylpyridin-2-yl)-N4-(1,5-dimethyl-1H-pyrazol-3-yl)-5-(3,4-dimethylpiperazin-1-yl)pyrimidine-2,4-diamine], the values for the IC50 in the data set with Dd2 PfATP4 NITD609, in the data set on Dd2 bc-1 ELQ-300 and in the data set on Dd2-6R F4 D4 were 6.8 nM, 8.2 nM and 81.6 nM, respectively. In addition, the hepatocyte CLint stood at 3.1 µL/min/1e6 cells in “Hepatocyte Clint, human”; 9.3 µL/min/1e6 cells in “Hepatocyte Clint, dog” (dog, hepatocytes); 11.3 µL/min/1e6 cells in the data set “Hepatocyte Clint, rat” (rat, hepatocytes). Further, the Km in “in vitro” (human, HLM) is 22.5 µM; in “in vitro” (mouse, MLM) it was 78.3 µM. In addition, the “Predicted blood CL” value in the data set “Hepatocyte Clint, dog” is 38 % LBF; in “Hepatocyte Clint, dog” (IVIVC from hepatocyte Clint), 20.8 mL/min/kg; in “Hepatocyte Clint, rat” it was 26 % LBF; in “Hepatocyte Clint, rat” (IVIVC from hepatocyte Clint), 18.8 mL/min/kg. Moreover, the “Plasma protein binding (% free)” value in data set [1] (Guinea pig) is 5.5 % free. The free fraction (fraction unbound) in data set [1] (guinea pig, plasma) stood at 0.055. The “A—plasma Cmax free” value was 0.11 µM in data set [2] (75 mg kg^−1 per day oral) and 0.13 µM in data set [2] (150 mg kg^−1 per day oral). For the same compound, the “Safety margin (A/B)-free Cmax” value worked out at 12.6 in data set [2] (75 mg kg^−1 per day oral) and 15 in data set [2] (150 mg kg^−1 per day oral). For the same compound, the “Summary of clinical signs and effects” value in [2] (75 mg kg^−1 per day oral) and in data set [2] (150 mg kg^−1 per day oral) was “NOEL” each time. Also, the “clinical pathology and histopathology findings” value in [2] (75 or 150 mg kg^−1 oral, three days) is “no findings considered related to treatment”. Also, in the data set “Blood-plasma ratio, rat”, the “B:P ratio” value was determined as 1.65. The “log kill in PRR assay” value in the data set with Pf 3D7A is reported as more than 4 log.
For `Cc1cc(Nc2ncc(N3CCN(C)CC3)c(N3CCCC3)n2)ccn1` [compound 2], in [3] (100 mg/kg oral), the “A - Plasma Cmax Total” value was 8.13 µM; the “Safety Margin (A / B)” value is on record as “None”; the “Summary of clinical signs and effects” value was “Non-specific toxicity”. Moreover, in data set [3] (300 mg/kg oral), the “A - Plasma Cmax Total” value was found to be 19.18 µM; the “Safety Margin (A / B)” value is “None”; the “Summary of clinical signs and effects” value was “Premature decedents”. Further, the solubility in the data set “Solubility” worked out at 830 µM (≈ 293 µg/mL).

Values taken from paper PMC4389225, “Triaminopyrimidine is a fast-killing and long-acting antimalarial clinical candidate” (Nature Communications, 2015).
